These results are taken from US5405848A, “Substituted thiazolylaminotetrahydropyridopyrimidines derivatives useful as platelet aggregation inhibitors” (Ortho Pharmaceutical Corporation, priority 1993, dated 1995).

One assay has as its system platelets. The assay can be described thus: Platelet Aggregation Inhibition Activity (gel-filtered platelets, thrombin or ADP agonist, light transmission). Type of assay: cell-based. To be noted: 37° C.; for IC50: unit inferred. The method, then:
The percentage of platelet aggregation is calculated as an increase in light transmission of drug treated platelet concentrate vs control treated platelet concentrate. Blood is obtained from drug free, normal donors and placed into tubes containing 0.13 M sodium citrate (two sources are routinely used: platelet concentrate obtained from Biological Specialty Corp., Lansdale, Pa. or whole blood obtained from donors). Platelet rich plasma (PRP) is collected by centrifugation of the concentrate or whole blood at 130 ×g for 15 min at 25° C. The PRP (5 mL) is gel filtered through Sepharose 2B (bed volume 50 mL), and the platelet count is adjusted to 2×10^7 platelets per sample. The following constituents are added to a siliconized cuvette: 250 μL of the concentrated platelet flitrate, 100 μL of Tyrode's buffer (0.14 M NaCl, 0.0027 M KCl, 0.012 M NaHCO3, 0.76 mM Na2HPO4, 0.0055 M glucose and 2 mg/mL BSA pH 7.4), 50 μL of 2 mM calcium and test drug […]. Aggregation is monitored in a dual channel Chrono-log Aggregometer for three minutes following the addition of agonist (thrombin 50 μL of 1 unit/mL, or ADP 50 μL of 100 μM). The final assay volume is 500 μL. The reaction takes place at 37° C. The peak aggregation response is calculated as the increase in light transmission units over a three minute period. The difference of the increase in light transmission between control and drug treated platelets is then expressed as a percent of the nondrug treated controls.

Assay [1] addresses T1, fibrinogen receptor of blood platelets (activated platelets) (Homo sapiens, UniProt P05106+P08514).
T1 construct: from tissue
The assay can be described thus: Fibrinogen Binding (125I-fibrinogen binding to thrombin-activated platelets). To be noted: 125I-fibrinogen 0.15 μM; for IC50: unit inferred. As to the method: The compounds of the invention as identified above are evaluated for platelet aggregation inhibition activity as indicated by the percentage of non-aggregated platelets which are available for binding in accordance with the following procedure.
^125 I-Fibrinogen binding to activated platelets is a modification of the procedure described by Bennett et al., 1988. Briefly, 40 mL of PRP are centrifuged at 120 ×g to remove contaminating red cells. Aspirin (50 μM) is added and the PRP is incubated at 37° C. for 20 minutes. The pH of the PRP is adjusted to 6.5 with 3.8% sodium citrate and 0.9 μM of PGE1 is added. Platelets are concentrated by a 300 ×g centrifugation (10 min) and the pellet is resuspended in 4 mL. of Tyrode's buffer. The platelet suspension (4 mL) is gel-filtered through a Sepharose-2B column (50 mL bed volume). The platelet count is adjusted to 1×10^8 platelets per 200 mL. The binding reaction is performed in polystyrene tubes (final volume 500 mL). Reagents are added in the following order: 80 mL of Tyrode's buffer, 50 mL of CaCl2 (final concentration (f.c.) […]) and 50 mL of thrombin (f.c. 0.1 unit/mL). The platelet suspension is then added and the mixture is allowed to incubate at room temperature for 2 minutes. Hirudin (50 mL, f.c. 0.5 unit/mL) is immediately added to prevent the catalytic activity of thrombin. Various concentrations of the compound to be tested […] with the competing radioligand ^125 I-fibrinogen (f.c. of 0.15 μM) are added. The mixture is incubated for 10 minutes at room temperature. To terminate the binding reaction the platelets are sedimented (10,000 ×g for 3 minutes) through silicone oil (3:1 hi-phenol 550/methyl silicone 200, W. F. Nye, Inc., New Bedford, Mass.), in an Eppendorf centrifuge.
The tips of the centrifuge tubes containing the pelleted platelets are cut off and counted for ^125 I-fibrinogen associated with the stimulated platelets. The amount of platelet radioactivity measured in the presence of nonlabeled fibrinogen (4 mg/mL) is considered the nonspecific binding.
Data are expressed as a percent at concentrations of 30 μM of specifically bound ^125 I-fibrinogen to the platelets in Table 5 below. Positive percentages of fibrinogen binding indicates higher activity for inhibiting platelet aggregation since only non-aggregated or free platelets are available for fibrinogen binding. Alternatively, a concentration is provided in lieu of a percentage to indicate the IC50 of concentration of compound which provides 50% fibrinogen binding.

T1 sequence (P08514 32-887 limits assumed): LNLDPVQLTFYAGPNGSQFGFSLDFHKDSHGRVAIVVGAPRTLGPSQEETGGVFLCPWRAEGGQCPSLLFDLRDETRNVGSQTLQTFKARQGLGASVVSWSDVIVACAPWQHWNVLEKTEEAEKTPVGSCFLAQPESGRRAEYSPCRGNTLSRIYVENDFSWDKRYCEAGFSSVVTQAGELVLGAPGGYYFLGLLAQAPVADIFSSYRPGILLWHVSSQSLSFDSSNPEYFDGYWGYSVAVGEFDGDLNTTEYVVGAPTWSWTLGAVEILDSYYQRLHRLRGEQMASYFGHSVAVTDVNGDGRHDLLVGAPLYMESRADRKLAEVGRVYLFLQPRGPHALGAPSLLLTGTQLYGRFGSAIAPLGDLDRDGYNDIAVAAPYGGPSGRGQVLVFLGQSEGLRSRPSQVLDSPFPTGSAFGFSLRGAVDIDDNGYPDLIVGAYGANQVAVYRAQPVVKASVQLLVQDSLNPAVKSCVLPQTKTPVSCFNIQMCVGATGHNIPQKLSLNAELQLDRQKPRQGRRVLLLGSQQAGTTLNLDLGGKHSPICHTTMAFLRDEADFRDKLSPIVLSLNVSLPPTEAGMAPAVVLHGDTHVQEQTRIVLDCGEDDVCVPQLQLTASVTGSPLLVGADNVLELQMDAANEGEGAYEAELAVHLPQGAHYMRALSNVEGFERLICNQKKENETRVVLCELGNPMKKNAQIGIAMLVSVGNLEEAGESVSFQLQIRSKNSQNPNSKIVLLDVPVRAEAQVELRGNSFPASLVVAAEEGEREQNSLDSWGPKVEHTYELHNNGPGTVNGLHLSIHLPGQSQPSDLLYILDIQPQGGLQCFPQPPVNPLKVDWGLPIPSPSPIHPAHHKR
T1 sequence (P08514 891-1039 partner limits assumed): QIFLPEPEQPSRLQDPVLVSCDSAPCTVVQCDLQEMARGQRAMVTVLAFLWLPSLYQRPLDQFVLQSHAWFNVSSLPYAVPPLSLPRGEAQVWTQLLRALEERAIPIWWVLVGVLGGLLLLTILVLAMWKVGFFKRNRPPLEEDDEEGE
T1 sequence (P05106 27-788): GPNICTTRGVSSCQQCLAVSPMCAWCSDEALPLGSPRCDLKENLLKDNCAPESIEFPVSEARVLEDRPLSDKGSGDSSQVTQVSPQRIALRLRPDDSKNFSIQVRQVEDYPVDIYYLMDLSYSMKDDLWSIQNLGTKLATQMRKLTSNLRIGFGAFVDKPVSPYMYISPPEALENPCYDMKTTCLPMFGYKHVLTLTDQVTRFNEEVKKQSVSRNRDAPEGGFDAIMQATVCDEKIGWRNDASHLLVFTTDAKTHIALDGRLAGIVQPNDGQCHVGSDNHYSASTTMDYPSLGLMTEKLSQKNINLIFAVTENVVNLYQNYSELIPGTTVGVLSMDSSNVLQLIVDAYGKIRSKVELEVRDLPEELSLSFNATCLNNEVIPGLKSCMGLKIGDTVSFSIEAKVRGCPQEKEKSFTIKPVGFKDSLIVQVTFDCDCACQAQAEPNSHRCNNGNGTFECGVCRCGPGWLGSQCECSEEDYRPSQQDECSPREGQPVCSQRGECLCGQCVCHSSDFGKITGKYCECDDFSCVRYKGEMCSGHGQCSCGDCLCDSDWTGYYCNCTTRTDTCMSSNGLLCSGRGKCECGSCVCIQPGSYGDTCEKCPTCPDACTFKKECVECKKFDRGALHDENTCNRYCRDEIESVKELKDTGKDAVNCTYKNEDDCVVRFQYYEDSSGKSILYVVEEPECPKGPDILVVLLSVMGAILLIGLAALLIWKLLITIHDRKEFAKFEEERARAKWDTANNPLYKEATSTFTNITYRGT

As for `Clc1ccc(-c2csc(Nc3nc4c(c(-c5ccccc5)n3)CNCC4)n2)cc1` [Cmpd 21], in the assay on platelets, the inhibition (usually how much of the control response was suppressed) at 20 µM worked out at 84% and the IC50 (as a rule, the concentration that inhibits the measured activity by half) turned out to be 6.1 µM. In assay [1], this compound showed an inhibition at 30 µM of 87% and a concentration for half-maximal inhibition (IC50) of 20.9 µM.

Regarding `Cc1ccc(-c2csc(Nc3nc4c(c(-c5ccccc5)n3)CN(C(=O)CCN3CCN(C)CC3)CC4)n2)cc1` [Cmpd 26], at 20 µM the inhibition in the assay with platelets was 81%. In assay [1], the inhibition at 30 µM worked out at 39%.

For the compound `O=C(c1ccccc1)N1CCc2nc(Nc3nc(-c4ccc(F)cc4)cs3)nc(-c3ccccc3)c2C1` [Cmpd 9], in the assay on platelets, the inhibition at 20 µM stood at 27%.

For `COc1ccc(-c2csc(Nc3nc4c(c(-c5ccccc5)n3)CNCC4)n2)cc1` [Cmpd 18], in the assay on platelets, at 20 µM the inhibition was 25%.

In the assay on platelets, `Fc1ccc(-c2csc(Nc3nc4c(c(-c5ccccc5)n3)CNCC4)n2)cc1` [Cmpd 20] had an inhibition at 20 µM of 87% and an IC50 of 5.8 µM. In assay [1], this compound displayed an inhibition at 30 µM of 95% and an IC50 of 20.9 µM.

In the assay with platelets, `c1ccc(-c2csc(Nc3ncc4c(n3)CCNC4)n2)cc1` [Cmpd 24] gave an inhibition at 20 µM of 11%.

In the assay on platelets, `c1ccc(-c2csc(Nc3nc4c(c(-c5ccccc5)n3)CNCC4)n2)cc1` [Cmpd 13, 2-[4-Phenylthiazol-2-yl]amino-5,6,7,8-tetrahydro-4-phenylpyrimidino[4,5-d]pyridine] gave an inhibition at 20 µM of 100% and an IC50 of 7.93 µM. Further, in assay [1], the inhibition at 30 µM amounted to 69% and the half-maximal inhibitory concentration (IC50) amounted to 7.7 µM.

As for `CCCNCCC(=O)N1CCc2nc(Nc3nc(-c4cccc(Cl)c4)cs3)nc(-c3ccccc3)c2C1` [Cmpd 28], the inhibition at 20 µM in the assay on platelets worked out at 56%.

Take `Cc1ccc(-c2csc(Nc3nc4c(c(-c5ccccc5)n3)CNCC4)n2)cc1` [Cmpd 15, 2-[4-[4-Methylphenyl]thiazol-2-yl]amino-5,6,7,8-tetrahydro-4-phenylpyrimidino[4,5-d]pyridine]: the inhibition at 20 µM in the assay with platelets stood at 85%. In assay [1], this compound gave an inhibition at 30 µM of 28%.

The compound `Cc1ccc(-c2csc(Nc3ncc4c(n3)CCNC4)n2)cc1` [Cmpd 23] displayed an inhibition at 20 µM in the assay with platelets of 25%.
